Experimental data reported in publication PMC4949533, “Optimization of Inhibitors of Mycobacterium tuberculosis Pantothenate Synthetase Based on Group Efficiency Analysis” (Chemmedchem, 2015).

Molecular target: T1, Mycobacterium tuberculosis pantothenate synthetase (Mycobacterium tuberculosis, UniProt P9WIL4)
T1 construct: gene panC
T1 sequence (P9WIL4 2-309 limits assumed): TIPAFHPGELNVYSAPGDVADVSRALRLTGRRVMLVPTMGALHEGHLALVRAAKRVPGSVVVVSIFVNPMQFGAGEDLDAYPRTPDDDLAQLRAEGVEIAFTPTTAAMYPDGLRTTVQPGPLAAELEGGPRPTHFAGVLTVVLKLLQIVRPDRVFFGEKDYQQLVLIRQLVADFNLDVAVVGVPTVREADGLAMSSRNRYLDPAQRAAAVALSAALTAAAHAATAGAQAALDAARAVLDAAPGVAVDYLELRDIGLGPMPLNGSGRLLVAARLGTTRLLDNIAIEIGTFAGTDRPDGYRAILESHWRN
Test: isothermal titration calorimetry (ITC)
Format: binding
Settings: active site; lead compound of the group's earlier work; read-out: K D [μM]^[a]; cited from earlier work
Excerpt: isothermal titration calorimetry (ITC) on Mycobacterium tuberculosis pantothenate synthetase
In the case of `COc1ccc2c(c1)cc(C(=O)NS(=O)(=O)c1ccc(C)cn1)n2CC(=O)O` [compound 5, 5], the Kd is given as 1.5 µM.

Same assay, conditions: read-out: K D [μM]^[a]
Work on `COc1ccc2c(c1)cc(C(=O)NS(=O)(=O)c1ccc(C)cc1)n2CC(=O)O` [compound 10, 10] yielded a Kd of 0.34 µM.
Work on `COc1ccc2c(c1)cc(C(=O)NS(=O)(=O)c1ccc(C(F)(F)F)cc1)n2CC(=O)O` [compound 11, 11] yielded a Kd of 0.2 µM.
Work on `COc1ccc2c(c1)cc(C(=O)NS(=O)(=O)c1ccc(C(C)(C)C)cc1)n2CC(=O)O` [compound 12, 12] yielded a Kd of 0.46 µM.
With `COc1ccc2c(c1)cc(C(=O)NS(=O)(=O)c1ccc3ccccc3c1)n2CC(=O)O` [compound 13, 13] the Kd was 0.61 µM.
Work on `COc1ccc2c(c1)cc(C(=O)NS(=O)(=O)c1ccc(C(F)(F)F)cc1[N+](=O)[O-])n2CC(=O)O` [compound 14, 14] yielded a Kd of 0.8 µM.
`COc1ccc2c(c1)cc(C(=O)NS(=O)(=O)N1CCOCC1)n2CC(=O)O` [compound 15, 15] gave a Kd of 3.5 µM.
For `COc1ccc2c(c1)cc(C(=O)NS(=O)(=O)N1CCN(C(C)=O)CC1)n2CC(=O)O` [compound 16, 16], the Kd was 17 µM.
With `COc1ccc2c(c1)cc(C(=O)NS(=O)(=O)c1ccc(NC(C)=O)cc1)n2CC(=O)O` [compound 18, 18] the Kd was 6 µM.
For `COc1ccc(S(=O)(=O)NC(=O)c2cc3cc(OC)ccc3n2CC(=O)O)cc1` [compound 19, 19], the Kd was 2 µM.

Molecular target: T1, Mycobacterium tuberculosis pantothenate synthetase
Test: enzyme inhibition assay
Format: biochemical
Settings: not given
In the case of `COc1ccc2c(c1)cc(C(=O)NS(=O)(=O)c1ccc(C(F)(F)F)cc1)n2CC(=O)O` [compound 11, 11], the IC50 is reported as 5700 nM.
Molecule `COc1ccc2c(c1)cc(C(=O)NS(=O)(=O)Cc1ccc(C(F)(F)F)cc1)n2CC(=O)O` [compound 20, 20] has an IC50 of 253 nM.
